Here are results for five compounds from patent US9790180B2, “Piperidine derivatives as HDAC1/2 inhibitors” (Acetylon Pharmaceuticals, Inc., priority 2014, dated 2017).

One data set has as its target HDAC1 (Homo sapiens (Human), UniProt Q13547). The experiment in a line: HDAC enzyme assay, HDAC1. It is filed as biochemical. The method, then: (§1) Compounds for testing were diluted in DMSO to 50 fold the final concentration and a ten point three fold dilution series was made. The compounds were diluted in assay buffer (50 mM HEPES, pH 7.4, 100 mM KCl, 0.001% Tween-20, 0.05% BSA, 20 μM tris(2-carboxyethyl)phosphine) to 6 fold their final concentration. The HDAC enzymes (purchased from BPS Biosciences) were diluted to 1.5 fold their final concentration in assay buffer and pre-incubated with the compounds for 24 hours prior to addition of the substrate.
(§2) The substrate tripeptide substrate 3 (synthesized in house) for each enzyme was equal to the Km as determined by a substrate titration curve. The substrates were diluted in assay buffer at 6× their final concentration with 0.3 μM sequencing grade trypsin (Sigma). The substrate/trypsin mix was added to the enzyme/compound mix, the plate was shaken for 60 seconds and placed into a Spectramax M5 microtiter plate reader. The development of fluorescence was monitored for 30 min and the linear rate of the reaction was calculated. The IC50 was determined using Graph Pad Prism by a four parameter curve fit. The IC50 values obtained for the compounds of this invention are found in Table 1. Examples of the curves are found in FIGS. 1 and 4.

The target of a further data set is HDAC2 (Homo sapiens (Human), UniProt Q92769). As to the kind of experiment: HDAC enzyme assay, HDAC2. It is filed as biochemical. The method, then:
as §1, §2

Another data set deals with HDAC3 (Homo sapiens (Human), UniProt O15379). As to the kind of experiment: HDAC enzyme assay, HDAC3. The format is biochemical. The method, then: as §1, §2
Data set [1] deals with fetal β-like globin (HbG, γ). The experiment in a line: Fetal globin induction assay in CD34+ cells isolated from human bone marrow. It is filed as cell-based. Conditions: for Cell based assay potency: lowest concentration to achieve a 2 fold increase in fetal globin gene expression over baseline. The method, then:
CD34+ cells isolated from human bone marrow were cultured in vitro using a method described by Bradner J E (Proc Natl Acad Sci USA. 2010 Jul. 13; 107(28):12617-22), which consists of a 7 day expansion phase in media that supports differentiation of cells towards the erythroid lineage followed by a differentiation phase for 3 days where erythroid cell development continues. At the end of the differentiation period these cells are primarily late erythroblasts. mRNA levels were determined by quantitative real time PCR using primer/probe sets designed to adult major β-globin (β), adult minor β-globin (δ), fetal β-like globin (HbG, γ), and embryonic β-like globin (ε). Protein levels were determined by flow cytometry using fluorescent antibodies against fetal hemoglobin (HbF) or adult hemoglobin (HbA).
In the experiment shown in FIG. 3, cells were differentiated in the presence of vehicle (DMSO) 0.3, 1 and 3 μM of Compound A, and of 0.3, 1, and 3 μM of Compound 003. In the experiment shown in FIG. 6, cells were differentiated in the presence of vehicle (DMSO) 0.3, 1 and 3 μM of Compound A, and of 0.3, 1, and 3 μM of Compound 005. Globin mRNA levels were determined at day 3 of differentiation.

Data set [2] in a line: Rat cassette pharmacokinetics. Conditions: male, SD, plasma; for bioavailability: 5 mg/kg, rat, oral AUC to IV AUC, dose adjusted; for AUC / Cmax / half-life / CL renal: rat cassette dosing; for AUC / Cmax / half-life: 5 mg/kg PO; for half-life: read-out: PO T½ (converted); for CL renal: IV 1 mg/kg, read-out: IV Clr. (converted). The format is in vivo. The method, then:
Male SD rats were fasted overnight. Compounds of the invention were dissolved in dimethyl acetamide at 10 times the final concentration, then Solutol HS 15 (BASF) was added to a final concentration of 10%. Finally 80% saline was added and vortexed to achieve a clear solution. For the IV dosing three animals were injected via the foot dorsal vein with 1 mg/kg compound. For the PO dosing 5 mg/kg of compound was delivered by oral gavage. Blood was collected via the tail vein into K2EDTA tubes at 5 minutes, 15 minutes, 30 minutes, 1 hour, 2 hours, 4 hours, 8 hours and 24 hours after dosing. The blood was centrifuged at 2000 g for 5 minutes at 4° C. to obtain plasma. The plasma was extracted with acetonitrile and the level of compound was analyzed by LC/MS/MS. The level of compound in plasma was calculated from a standard curve in rat plasma. The IV clearance and area under the curve were calculated using WinNonLin software. The dose adjusted area under the curve for the IV and oral dosing were used to calculate the oral bioavailability.

The next data set concerns the target hERG channel (Homo sapiens (Human), UniProt Q12809). As to the kind of experiment: hERG assay (QPatch, CHO cell line expressing hERG channels). Conditions: for hERG: In vitro tox. It is filed as cell-based. The method, then:
For hERG assays, a CHO cell line stably transfected with hERG cDNA and expressing hERG channels were seeded into a QPatch plate (Sophion) at a density of 3-8×10^6 cells/ml. The cells were voltage clamped at a holding potential of −80 mV. The hERG current was activated by depolarizing at +20 mV for 5 sec, after which the current was taken back to −50 mV for 5 sec to remove the inactivation and observe the deactivating tail current. The maximum amount of tail current size was used to determine hERG current amplitude. Six doses (30, 10, 3, 1, 0.3 and 0.1 μM) of Compound 003 were chosen to obtain fitting curves and IC50. Data were analyzed using Assay Software provided by Sophion and Graphpad Prism.
In general terms: Block of hERG is tested as a sign of cardiac risk.

The nature of the next data set: Solubility. The format is physicochemical.
The next data set can be described thus: Microsome stability. It is filed as in vitro ADME.
Data set [3] concerns CYP1A2, CYP2C9, CYP2C19, CYP3A4, CYP2D6. The experiment in a line: Cyp inhibition in human liver microsomes. The format is in vitro ADME. Conditions: for Cyp: In vitro tox, human liver microsomes. The method, then:
For Cyp inhibition, human live microsomes from BD Gentest were incubated with Compound 003 (10, 3.33, 1.11, 0.37, 0.12, 0.04, 0.01 μM) and substrate (CYP1A2: Phenacetin at 30 μM; CYP2C9: Diclofenac at 10 μM; CYP2C19: S-Mephenytoin at 35 μM; CYP3A4: Midazolam at 5 μM and Testosterone at 80 μM; CYP2D6: Bufuralol at 10 μM) for the following incubation times: CYP1A2, 2C9, 2D6: 10 minutes, 37° C.; CYP2C19: 45 minutes, 37° C.; CYP3A4: 5 minutes, 37° C. Substrate conversion was measured by liquid chromatography/mass spectrometry/mass spectrometry (LC/MS/MS). Inhibition was calculated by curve fitting in Graph Pad Prism.

For data set [4], the system named is bacterial tester strains TA98, TA100, TA1535 and TA97a and E. coli tester strain WP2 uvrA. The experiment in a line: Ames genotoxicity (bacterial reverse mutation). The method, then: For genotoxicity, bacterial tester strains TA98, TA100, TA1535 and TA97a as described by Ames et al. (1975) and the E. coli tester strain WP2 uvrA as described by Green and Muriel (1976) were incubated with Compound 003 at 250, 75, 25, 7.5, 2.5, 0.75, 0.25, and 0.075 μg/well in 24 well plates either with or without liver homogenate (S9) purchased commercially (MolTox; Boone, N.C.) prepared from male Sprague Dawley rats that have been injected intraperitonealy with Aroclor 1254 (200 mg/mL in corn oil), at a dose of 500 mg/kg, 5 days before sacrifice. Mutagenicity is evaluated by counting the number of colonies that form on non-permissive media.

Data set [5] relates to human peripheral blood lymphocytes (HPBL). As to the kind of experiment: Micronucleus formation assay. The format is cell-based. The method, then: Genotoxicity was further evaluated by micronucleus formation assay in human peripheral blood lymphocytes (HPBL). HPBL were obtained from healthy donors and exposed to Compound 003 at […] for 4 hours with or without S9 activation. The cells were washed with PBS and incubated in complete medium with 6 μg/ml cytocholasin B for 24 hours. The cells were then lysed, fixed, and mounted on microscope slides. The number of mononucleated, binucleated, and micronucleated cells was counted under blinded conditions.

The test system of a further data set is Gata2 mRNA. The experiment in a line: Gata2 mRNA induction in erythroid progenitors. It is filed as cell-based, human. Conditions: primary erythroid progenitors, 3 days differentiation, relative to beta-actin mRNA (FIG. 7). From the text:
Human bone marrow derived CD34+ cells were expanded for 7 days as described by Sankaran et al., Science, vol. 322(5909), pp. 1839-42 (2008). Cells were then differentiated, in the presence of the indicated concentration of Compound 005, Compound A (another known HDAC1/2 inhibitor), or vehicle control (DMSO), for 3 days in media supporting erythropoiesis (Hu et al., “Isolation and functional characterization of human erythroblasts at distinct stages: implications for understanding of normal and disordered erythropoiesis in vivo”, Blood, vol. 121(16), pp. 3246-53 ([…])). Gata2 mRNA was determined using quantitative real time PCR and expressed relative to the level beta-actin mRNA control.

Setting [6] is: 24 hours pre-incubation with enzyme, read-out: IC50 (nM) HDAC1.
[7] abbreviates: 24 hours pre-incubation with enzyme, read-out: IC50 (nM) HDAC2.
Setting [8] is: 24 hours pre-incubation with enzyme, read-out: IC50 (nM) HDAC3.

Converted amounts (≈) assume the structure as drawn. Like-named read-outs stand apart in the source and are kept apart here.

Chain of HDAC2 (Q92769 whole entry): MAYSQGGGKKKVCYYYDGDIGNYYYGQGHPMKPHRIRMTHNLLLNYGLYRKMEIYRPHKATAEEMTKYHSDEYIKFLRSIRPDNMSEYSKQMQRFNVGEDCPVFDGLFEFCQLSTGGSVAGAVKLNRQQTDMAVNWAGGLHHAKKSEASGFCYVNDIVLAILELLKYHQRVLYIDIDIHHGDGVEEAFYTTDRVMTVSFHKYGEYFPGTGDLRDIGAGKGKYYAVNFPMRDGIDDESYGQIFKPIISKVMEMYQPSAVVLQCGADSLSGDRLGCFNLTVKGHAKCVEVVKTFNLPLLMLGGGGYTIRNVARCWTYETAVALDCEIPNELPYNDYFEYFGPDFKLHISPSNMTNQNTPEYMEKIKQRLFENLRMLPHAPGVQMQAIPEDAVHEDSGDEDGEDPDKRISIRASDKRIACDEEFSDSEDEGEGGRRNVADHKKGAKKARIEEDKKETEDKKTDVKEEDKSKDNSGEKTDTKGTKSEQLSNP
Chain of HDAC3 (O15379 whole entry): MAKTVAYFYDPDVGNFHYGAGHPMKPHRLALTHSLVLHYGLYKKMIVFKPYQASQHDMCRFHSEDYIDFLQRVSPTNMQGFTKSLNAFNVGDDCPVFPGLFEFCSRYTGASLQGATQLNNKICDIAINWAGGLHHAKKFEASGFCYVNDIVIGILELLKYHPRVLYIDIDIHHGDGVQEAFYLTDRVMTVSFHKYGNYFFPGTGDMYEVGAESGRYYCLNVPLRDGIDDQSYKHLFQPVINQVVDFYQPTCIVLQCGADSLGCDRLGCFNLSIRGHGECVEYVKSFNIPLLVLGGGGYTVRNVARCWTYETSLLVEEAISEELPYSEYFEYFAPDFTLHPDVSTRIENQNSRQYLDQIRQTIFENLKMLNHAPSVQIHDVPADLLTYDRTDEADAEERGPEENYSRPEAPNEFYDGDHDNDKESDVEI
Chain of HDAC3 (Q9Y618 395-489 partner): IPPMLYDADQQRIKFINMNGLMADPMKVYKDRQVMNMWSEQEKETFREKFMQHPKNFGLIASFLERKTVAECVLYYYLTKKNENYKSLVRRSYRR
Chain of HDAC1 (Q13547 whole entry): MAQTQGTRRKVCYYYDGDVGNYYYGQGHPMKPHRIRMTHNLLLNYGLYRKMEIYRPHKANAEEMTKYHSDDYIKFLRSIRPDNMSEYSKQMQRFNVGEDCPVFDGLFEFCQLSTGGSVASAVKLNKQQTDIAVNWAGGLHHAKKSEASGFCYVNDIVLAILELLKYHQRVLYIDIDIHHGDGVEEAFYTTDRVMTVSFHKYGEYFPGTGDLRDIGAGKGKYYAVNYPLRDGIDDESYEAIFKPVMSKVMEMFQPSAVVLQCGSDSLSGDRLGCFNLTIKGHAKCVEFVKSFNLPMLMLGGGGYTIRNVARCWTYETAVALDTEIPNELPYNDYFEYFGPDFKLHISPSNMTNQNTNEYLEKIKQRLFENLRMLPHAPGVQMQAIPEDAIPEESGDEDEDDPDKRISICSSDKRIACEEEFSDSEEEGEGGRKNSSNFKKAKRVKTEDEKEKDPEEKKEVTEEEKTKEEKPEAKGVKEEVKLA
Chain of hERG channel (Q12809 whole entry): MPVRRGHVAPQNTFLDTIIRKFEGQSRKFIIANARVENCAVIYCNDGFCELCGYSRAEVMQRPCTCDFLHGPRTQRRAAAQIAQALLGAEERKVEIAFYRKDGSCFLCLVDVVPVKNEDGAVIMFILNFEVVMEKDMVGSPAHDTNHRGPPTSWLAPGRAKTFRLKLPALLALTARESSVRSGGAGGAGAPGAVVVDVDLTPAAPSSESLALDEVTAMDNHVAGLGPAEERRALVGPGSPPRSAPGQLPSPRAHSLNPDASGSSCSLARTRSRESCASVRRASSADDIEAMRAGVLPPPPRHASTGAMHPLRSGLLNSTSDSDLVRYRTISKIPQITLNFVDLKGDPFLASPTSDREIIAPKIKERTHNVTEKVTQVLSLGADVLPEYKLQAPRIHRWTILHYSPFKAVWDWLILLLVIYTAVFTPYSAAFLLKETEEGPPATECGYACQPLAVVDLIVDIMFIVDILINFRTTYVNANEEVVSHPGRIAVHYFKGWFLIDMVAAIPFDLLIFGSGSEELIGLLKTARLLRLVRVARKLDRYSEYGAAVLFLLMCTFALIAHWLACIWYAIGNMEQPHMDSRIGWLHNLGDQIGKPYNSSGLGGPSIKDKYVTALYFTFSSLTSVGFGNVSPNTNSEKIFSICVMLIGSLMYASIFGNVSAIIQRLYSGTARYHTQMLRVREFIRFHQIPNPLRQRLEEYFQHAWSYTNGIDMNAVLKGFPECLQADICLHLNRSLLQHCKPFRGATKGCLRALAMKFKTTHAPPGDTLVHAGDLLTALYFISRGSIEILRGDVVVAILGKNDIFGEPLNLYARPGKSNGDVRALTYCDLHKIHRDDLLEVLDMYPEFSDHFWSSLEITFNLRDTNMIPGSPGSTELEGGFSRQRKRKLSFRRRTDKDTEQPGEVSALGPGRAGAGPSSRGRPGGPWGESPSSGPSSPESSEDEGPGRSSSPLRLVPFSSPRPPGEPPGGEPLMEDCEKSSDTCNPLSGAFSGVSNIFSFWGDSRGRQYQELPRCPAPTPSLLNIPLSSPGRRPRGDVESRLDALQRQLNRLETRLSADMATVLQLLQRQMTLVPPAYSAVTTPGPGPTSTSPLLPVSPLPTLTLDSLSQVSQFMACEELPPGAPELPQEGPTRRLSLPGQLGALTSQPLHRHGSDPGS

Regarding `CC(C)NC(=O)N1CCC(C)(Nc2ncc(C(=O)Nc3cc(-c4cccs4)ccc3N)cn2)CC1` [Compound 001], the IC50 at HDAC1 (setting [6]) is 6.5 nM. Besides, at HDAC2 (setting [7]), the IC50 amounted to 38 nM. Besides, on HDAC3 (setting [8]), the IC50 is 427 nM. The “Cell based assay potency” value in data set [1] was 3000 nM. Also, in data set [2], the bioavailability worked out at 63%, the AUC came out at 5960 ng·h/mL, the peak level (Cmax) was 988 ng/mL and the half-life is 3.8 h. In data set [2], the CL renal is 8.83 mL/min/kg. The same compound yielded a hERG at hERG channel of over 30 µM. Further, the solubility in the data set “Solubility” worked out at 16.9 µM (≈ 8.34 µg/mL). In the data set “Microsome stability”, this compound displayed a Microsome stability of 11 min.
In the case of `CC(C)C1(Nc2ncc(C(=O)Nc3cc(-c4cccs4)ccc3N)cn2)CCN(C(=O)N2CCN(C)CC2)CC1` [Compound 002], the IC50 on HDAC1 (setting [6]) was found to be 7 nM. Further, the IC50 on HDAC2 (setting [7]) is 28 nM. For the same compound, the IC50 at HDAC3 (setting [8]) is 203 nM. Moreover, in [1], the “Cell based assay potency” value stood at 3000 nM. In data set [2], the bioavailability is 142%, the AUC worked out at 6090 ng·h/mL, the Cmax is 1010 ng/mL and the half-life is 5.9 h. The CL renal in [2] is 20 mL/min/kg. On hERG channel, the hERG was over 30 µM. The compound also displayed a Cyp in data set [3] of over 10 µM. Further, the concentration in solution in the data set “Solubility” (solubility) was 42.7 µM (≈ 24 µg/mL).
For `Nc1ccc(-c2cccs2)cc1NC(=O)c1cnc(NC2CCN(C(=O)N3CCOCC3)CC2)nc1` [Compound 003], at HDAC1 (setting [6]), the IC50 turned out to be 15 nM. On HDAC2 (setting [7]), the IC50 was 56 nM. The IC50 at HDAC3 (setting [8]) was found to be 204 nM. For the same compound, the “Cell based assay potency” value in data set [1] amounted to 3000 nM. Moreover, in [2], the bioavailability amounted to 118%, the AUC is 59900 ng·h/mL, the Cmax turned out to be 2320 ng/mL and the half-life is 17 h. For the same compound, the CL renal in data set [2] is 2 mL/min/kg. This compound yielded a hERG at hERG channel of over 30 µM. Besides, the “inhibition of the activity of the hERG channel” value on hERG channel (at the highest concentration of 30 μM) is reported as “did not inhibit”. For the same compound, the Cyp in [3] is over 10 µM. Besides, the “inhibition of activity of any Cyp” value in data set [3] (up to 10 μM) is given as “did not inhibit”. Further, the Ames entry in data set [4] (In vitro tox) is “Neg”. Further, the “number of revertant colonies” value in [4] (any strain, with or without S9 activation) is reported as “did not increase”. In addition, the MN entry in data set [5] (In vitro tox) is listed as “Neg”. In addition, in data set [5] (any concentration, 4 hours with or without S9 activation), the “number of micronucleated cells” value is listed as “did not increase”. Moreover, in “Solubility”, the solubility is 54 µM (≈ 27.4 µg/mL). In “Microsome stability”, this compound had a Microsome stability of 4.7 min.
For the compound `Nc1ccc(-c2cccs2)cc1NC(=O)c1ccc(NC2CCN(C(=O)N3CCCC3)CC2)cc1` [Compound 006], the IC50 on HDAC1 (setting [6]) worked out at 4.7 nM. Besides, the IC50 at HDAC2 (setting [7]) amounted to 22 nM. Also, at HDAC3 (setting [8]), the IC50 was 274 nM. Further, in data set [2], the bioavailability turned out to be 76%, the AUC is 31600 ng·h/mL, the Cmax stood at 1520 ng/mL and the half-life is 14.5 h. In data set [2], the CL renal is 2.5 mL/min/kg. The hERG on hERG channel is over 30 µM. The Cyp in data set [3] is over 10 µM.
Consider `Nc1ccc(-c2cccs2)cc1NC(=O)c1ccc2nc(N3CCNCC3)ccc2c1` [Compound A, reference compound], for which the IC50 at HDAC1 (reference compound, read-out: IC50 for HDAC1) is about 4 nM; on HDAC2 (reference compound, read-out: IC50 for HDAC2) it was about 15 nM; on HDAC3 (reference compound, read-out: IC50 for HDAC3), about 114 nM. Also, the “induction of % HbG” value in data set [1] (primary erythroid progenitors, 3 days differentiation (FIG. 6)) is “equivalent dose and time-dependent induction”. The “induction of Gata2 mRNA” value with Gata2 mRNA is “equivalent dose and time-dependent induction”.

As usually defined, the IC50 is the concentration that gives 50% inhibition. As usually defined, the AUC is concentration integrated over time. Read a high AUC as high exposure. The term Cmax denotes the maximum level reached in the sampled fluid or tissue. The term solubility denotes the concentration that dissolves in the medium under given conditions.
